Results as given in patent US10016440B2, “Methods of enhancing antibody-dependent cellular cytotoxicity” (VentiRx Pharmaceuticals, Inc., priority 2010, dated 2018).

Assays:
Type in all cases: cell-based, human
[1] = tested on: breast cancer cell line MDA-MB-231; experiment: Herceptin-mediated ADCC of MDA-MB-231 cells by PBMC effector cells (Calcein AM release); conditions: PBMCs activated with the ADCC enhancer (FIG. 3)
Protocol: (§1) Human Peripheral blood mononuclear cells (PBMCs) were isolated by Ficoll™ density gradient centrifugation and resuspended in RPMI containing 2% heat-inactivated FBS. PBMCs at a concentration of 1 to 3 million cells per mL were incubated with 10-500 nM ADCC enhancer in a humidified CO2 incubator for 18-72 hrs. Activated PBMCs were then used as effector cells in NK and ADCC assays. PBMCs activated with the ADCC enhancer were tested for the ability to enhance killing of the NK sensitive target cell line K562 or various tumor cells coated with monoclonal antibodies. Target cells were labeled with the fluorescent dye Calcein AM for 1 hour at 37° C. in a dark humidified CO2 incubator. […] Activated effector cells and labeled target cells were incubated in 96-well tissue culture plates at for 4 hours at 37° C. in a dark humidified CO2 incubator in an assay buffer containing HBSS+Ca/Mg+5% FBS. […] Fluorecence was quantified with a fluorescent microtiter plate reader. The % specific lysis was calculated as (Sample fluorescence-spontaneous fluorescence)*100/(100% fluorescence-spontaneous). 100% fluorescence was determined from wells that contained labeled target cells and detergent such at 0.1% Tween-20 or Triton X-100. Spontaneous fluorescence was determined from wells that contained assay buffer and target cells but not effector cells.

[2] = tested on: rituximab-coated HS-Sultan cells; experiment: Rituximab-mediated ADCC of HS-Sultan cells with PBMC from donors genotyped for FcgR polymorphisms; conditions: for baseline ADCC (percent specific lysis): buffer control, E:T 50:1 (FIG. 4); for rituximab-mediated ADCC activity: unstimulated PBMC
Protocol: Percent specific lysis is shown for Rituxan-coated HS-Sultan cells incubated with PBMC effector cells at an E:T ratio of 50:1. PBMCs from a patient with the high affinity genotype FcgR2a131 H/H and FcgR3a V/V (solid rectangles) or a patient with the lower affinity genotype FcgR2a131 […] and FcgR3a V/F (open rectangles) were evaluated for ADCC after stimulation with buffer control (baseline) or stimulation with 500 nM ADCC enhancer.
ADCC is mediated through immune effector cells included NK cells that engage the Fc portion of the monoclonal antibody through specific receptors. Patients with single nucleotide polymorphisms in these receptors such as FcRgamma3a position 158 and FcRgamma2a position 131 have a poorer clinical prognosis presumably from poor ADCC due to a lower affinity of the receptor for the monoclonal antibody. […] To determine if this common polymorphism affects the baseline antibody-dependent cellular cytoxicity (ADCC) response and/or response to the ADCC enhancer molecule of the present invention (Compound VTX-2337), PBMCs from donors were genotyped for the two alleles encoding the F and V isoforms, respectively, and tested in vitro. We analyzed rituximab-mediated ADCC using unstimulated PBMC or VTX-2337-stimulated PBMC from 15 donors, including 10 donors with FF or FV phenotype and 5 donors with VV phenotype.
Blood was collected from healthy donors and PBMCs were isolated using a Ficoll gradient. PBMCs were activated by culturing them in the presence of 500 nM VTX-2337 at 37° C. in a humidified 5% CO2 incubator for 48 hours. Activated PBMCs were then incubated with rituximab-coated HS-Sultan cells loaded at a ratio of 100:1 for 4 hours. Lysis was determined by measuring release of the fluorescent dye Calcein AM from the HS-Sultan cells.

[3] = tested on: breast cancer cell line SKBR3; experiment: Herceptin-mediated ADCC of SKBR3 cells by PBMC effector cells (Calcein AM release); conditions: PBMCs activated with the ADCC enhancer (FIG. 3)
Protocol: as §1

| Compound | killing of Herceptin coated MDA-MB-231 targets [1] | rituximab-mediated ADCC ([2]; PBMC stimulated with 500 nM VTX-2337 for 48 hours, low affinity FF/FV group, E:T 100:1 (FIG. 5)) [%] | killing of Herceptin coated SKBR3 targets [3] [%] | baseline ADCC (percent specific lysis) ([2]; patient with high affinity genotype FcgR2a131 H/H and FcgR3a V/V) | baseline ADCC (percent specific lysis) ([2]; patient with lower affinity genotype FcgR2a131 A/A and FcgR3a V/F) [%] | rituximab-mediated ADCC activity ([2]; FF/FV donors, E:T 100:1 (FIG. 5)) [% specific lysis] | rituximab-mediated ADCC activity ([2]; VV donors, E:T 100:1 (FIG. 5)) [% specific lysis] |
| --- | --- | --- | --- | --- | --- | --- | --- |
| CCCN(CCC)C(=O)C1=Cc2ccc(-c3ccc(C(=O)N4CCCC4)cc3)cc2N=C(N)C1 [ADCC enhancer, {2-amino-8-[4-(pyrrolidinylcarbonyl)phenyl]-(3H-benzo[f]azepin-4-yl)}-N,N-dipropylcarboxamide] | 40-60% | 40.0±4.1 | > 80 |  |  |  |  |
| Rituxan: anti-CD20 monoclonal antibody rituximab (Rituxan) |  |  |  | approximately 30% | 10 | 20.5±2.5 | 31.7±2.9 |
